This is an account of results in patent US12168665B2, “Substituted imidazo[l,2-a]pyrazines and pyrazino[l,2-a] pyrimidines as topical agents for dermatological applications” (Genesis Molecular Technologies, Inc., priority 2020, dated 2024).

In series [1] the test system is TCF/LEF reporter activity. The series is described as follows: Wnt/driven TCF/LEF reporter (Luc) activity in HEK293 cell line assay. To be noted: TCF/LEF reporter (Luc)-HEK293 cells, LiCl and mouse Wnt3a stimulation, read-out: IC50 value of compounds against TCF/LEF reporter activity. The series is classed as cell-based. The method, then:
Assay of Wnt/driven TCF/LEF reporter (Luc) activity in a stably transfected cell line. The Wnt/driven TCF/LEF reporter (Luc) activity in a stably transfected cell line assay was performed at BPS Bioscience (San Diego, CA 92121, USA). In brief, TCF/LEF reporter (Luc)-HEK293 cells are harvested from culture in growth medium and seeded at a density of about 35,000 cells per well into a white clear-bottom 96-well microplate in 80 μL of assay medium. 20 μL of 50 mM LiCl solution in assay medium are added to each well (final concentration 10 mM), and cells are incubated at 37° C. in a CO2 incubator for 16 hours. 10 μL of threefold serial dilution of mouse Wnt3a in assay medium are added to each stimulated well. The plate is incubated at 37° C. in a CO2 incubator for 6 hours. 100 μL of ONE-Step™ Luciferase Assay buffer per well are added and the plate is shaken for 30 min prior to measuring luminescence using a luminometer.
Exemplary compounds, wherein Y is hydrogen, of the present invention were tested for Wnt/driven TCF/LEF reporter (Luc) activity in HEK293 cell line assay. […] The positive control compound for this assay is IWR-1-endo, which is known in the art as a non-CBP/β-catenin Wnt antagonist, which stabilizes Axin-dependent β-catenin destruction (Chen, B., et al., Nat. Chem. Biol. 2009; 5(2):100-107).

The test system of series [2] is CBP/β-catenin (Wnt-driven luciferase activity). Kind of series: SuperTOPFLASH cell-based luciferase assay (Hek293, STF1.1). As to conditions: Homo sapiens; Hek293 STF1.1 cells; tested at 2.5, 5, 10 and 20 μM. The method, then: SuperTOPFLASH Cell-based Luciferase Assay. Hek-293,STF1.1 cells are maintained in DMEM, 10% FBS, Pen-Strep supplemented with 200 μg/mL G418. On the day prior to assay, cells are split into a white, opaque 96-well plate at 10,000 cells per well in 50 μL of complete medium without G418 (for screening of Wnt-signaling inhibitors, G418 can be left out during screening process). After allowing the cells to stabilize and attach overnight, 40 μL of complete medium (without G418) containing 2.5× final concentration of compound or DMSO control is added to the cells and allowed to incubate for 1 hour at 37° C., 5% CO2 prior to adding […] of a 100 mM LiCl solution prepared in complete medium (without G418). After 24 hours, 100 µL of BrightGlo™ (Promega, Cat. #: G7573) is added to each well and the plate is shaken for 5 minutes prior to reading on the Perkin-Elmer EnVision™ Plate Reader. […]

A short description of series [3]: Stability by analytical HPLC analysis. It counts as physicochemical. The method, then:
Analytical HPLC analysis was performed on an Agilent 1100 HPLC with a Phenomenex Luna C18 (2) column (3 micron, 150×4.6 mm id) at a flow rate of 0.6 mL/min, eluting with a binary solvent system A and B using a 35%-70% B in 20 min and then 70%-95% B in 5 min (gradient elution 1), or 70%-95% B in 25 min and then 95%-100% B in 3 min (gradient elution 2) (A: Milli-Q water with 0.1% TFA; B: CH3CN with 0.1% TFA). NMR spectra were recorded on a Bruker AV-300 300 MHz NMR instrument using DMSO-d6 or CDCl3 with TMS as an internal standard. Mass spectra data was obtained with Bruker Esquire Liquid Chromatography-Ion Trap Mass Spectrometer.
As is readily apparent, compound 6 is stable at room temperature both in a solid form and in organic solvents (e.g., CH3CN, and CH3OH).

In a further series the test system is human skin. Kind of series: Cosmetic evaluation on human skin, topical formulation. It counts as in vivo. To be noted: 0.15% wt./wt. topical formulation twice daily, 8 weeks. From the text: For cosmetic evaluation, compound 6 (0.15% wt./wt.) formulated in an aqueous based vehicle was topically applied twice daily (0.25 g formulation per application) during an 8-week testing period according to the following daytime/nighttime regimen.
During the study, subjects used no other skin care regimen. Prior to application of the test formulation, subjects washed their faces with Purpose cleanser, rinsed and then dry patted their faces. For each daytime and each nighttime application, 0.25 g of the test formulation (2 pumps from an applicator) was then applied to the entire face, around the eyes and onto the neck. Photographs (without any face and eye make-up), and self-assessment was performed before and after the 8-week period.

The conditions of series [4]: animal toxicity studies and clinical studies; cited from earlier work.
The subject of series [5] is hapten-induced atopic dermatitis-like dermatitis. To be noted: preclinical study (Matsuda-Hirose 2019); cited from earlier work.

pIC50: −log10 of the molar value. “Also recorded” adds a separate entry of the source. Read-outs that look alike come from different tables or passages of the source.

As for `O=C1[C@H](Cc2ccc(O)cc2)N2C(=O)C[C@H](CO)N(C(=O)NCc3ccccc3)[C@H]2CN1Cc1cccc2ccccc12` [Compound 2, (2R,6S,9aS)—N-benzyl-6-(4-hydroxybenzyl)-2-(hydroxymethyl)-8-(naphthalen-1-ylmethyl)-4,7-dioxohexahydro-2H-pyrazino[1,2-a]pyrimidine-1(6H)-carboxamide], in series [1] (Homo sapiens), the pIC50 was under 4.60. `O=C1[C@H](Cc2ccc(O)cc2)N2C(=O)C[C@@H](CO)N(C(=O)NCc3ccccc3)[C@H]2CN1Cc1cccc2ccccc12` [Compound 3, (2S,6S,9aS)—N-benzyl-6-(4-hydroxybenzyl)-2-(hydroxymethyl)-8-(naphthalen-1-ylmethyl)-4,7-dioxohexahydro-2H-pyrazino[1,2-a]pyrimidine-1(6H)-carboxamide]: the figures for the pIC50 in series [1] (Homo sapiens) and in series [2] were 4.80 and 5.60, respectively.

In the case of `O=C1[C@H](Cc2ccc(O)cc2)N2C(=O)[C@H](CO)N(C(=O)NCc3ccccc3)[C@H]2CN1Cc1cccc2ccccc12` [Compound 4, (2S,5S,8a5)-N-benzyl-5-(4-hydroxybenzyl)-2-(hydroxymethyl)-7-(naphthalen-1-ylmethyl)-3,6-dioxohexahydroimidazo[1,2-a]pyrazine-1(5H)-carboxamide], the pIC50 in series [1] (Homo sapiens) was 4.95. Still for that read-out and setting: the result for `O=C1[C@H](Cc2ccc(O)cc2)N2C(=O)[C@@H](CCO)N(C(=O)NCc3ccccc3)[C@H]2CN1Cc1cccc2ccccc12` [Compound 5, (2R,5S,8a5)-N-benzyl-5-(4-hydroxybenzyl)-2-(2-hydroxyethyl)-7-(naphthalen-1-ylmethyl)-3,6-dioxohexahydroimidazo[1,2-a]pyrazine-1(5H)-carboxamide] reads under 4.60. `CCCCCCCCCCCC(=O)OC[C@@H]1CC(=O)N2[C@H](CN(Cc3cccc4ccccc34)C(=O)[C@@H]2Cc2ccc(O)cc2)N1C(=O)NCc1ccccc1` [Compound 6, (2S,6S,9aS)-1-(benzylcarbamoyl)-6-(4-hydroxybenzyl)-8-(naphthalen-1-ylmethyl)-4,7-dioxooctahydro-2H-pyrazino[1,2-a]pyrimidin-2-yl)methyl dodecanoate]: the “Degradation product detected by analytical HPLC” value in series [3] (after 4 days at room temperature) was “No degradation product”. In series [3] (solid form and organic solvents (CH3CN, CH3OH), analytical HPLC), the “Stability at room temperature” value is “stable”. The “Improvement of skin appearance (wrinkles, redness)” value in the series with human skin is “improvement of skin appearance (e.g., reducing the appearance of wrinkles and redness) is achieved; also recorded: Skin improvement (e.g., reducing the extent and appearance of wrinkles) was visible”.

Take `O=C1[C@H](Cc2ccc(O)cc2)N2C(=O)CCN(C(=O)NCc3ccccc3)[C@H]2CN1Cc1cccc2ccccc12` [ICG-001]: the “Safety at effective levels” value in series [4] is recorded as “extremely safe”. In series [5], the “Effect on hapten-induced atopic dermatitis-like dermatitis” value is listed as “prevents the emergence of hapten-induced atopic dermatitis-like dermatitis”. Consider `O=C(Nc1cccc2cccnc12)c1ccc(N2C(=O)[C@@H]3[C@H](C2=O)[C@@H]2C=C[C@H]3C2)cc1` [IWR-1-endo, reference compound], for which the pIC50 in series [1] is 6.70.
